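Grown in 96-well plates, cells were treated for 48 hours with each compound at five concentrations. Insufficient inhibition: endpoint recorded as highest concentration tested. TGI: concentration producing complete growth inhibition.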
Legend:
Assay in all cases: DTP human tumour cell line panel, 48 h
786-0 renal = tested on: 786-0 renal
A498 renal = tested on: A498 renal
A549 NSCLC = tested on: A549 NSCLC
ACHN renal = tested on: ACHN renal
BT-549 breast = tested on: BT-549 breast
CAKI-1 renal = tested on: CAKI-1 renal
CCRF-CEM leukemia = tested on: CCRF-CEM leukemia
COLO 205 colon = tested on: COLO 205 colon
DU-145 prostate = tested on: DU-145 prostate
EKVX NSCLC = tested on: EKVX NSCLC
HCC-2998 colon = tested on: HCC-2998 colon
HCT-116 colon = tested on: HCT-116 colon
HCT-15 colon = tested on: HCT-15 colon
HL-60(TB) leukemia = tested on: HL-60(TB) leukemia
HOP-62 NSCLC = tested on: HOP-62 NSCLC
HOP-92 NSCLC = tested on: HOP-92 NSCLC
HS 578T breast = tested on: HS 578T breast
HT29 colon = tested on: HT29 colon
IGROV1 ovarian = tested on: IGROV1 ovarian
K-562 leukemia = tested on: K-562 leukemia
KM12 colon = tested on: KM12 colon
LOX IMVI melanoma = tested on: LOX IMVI melanoma
M14 melanoma = tested on: M14 melanoma
MALME-3M melanoma = tested on: MALME-3M melanoma
MCF7 breast = tested on: MCF7 breast
MDA-MB-231 breast = tested on: MDA-MB-231 breast
MDA-MB-435 = tested on: MDA-MB-435
MDA-N = tested on: MDA-N
MOLT-4 leukemia = tested on: MOLT-4 leukemia
NCI-H226 lung = tested on: NCI-H226 lung
NCI-H23 lung = tested on: NCI-H23 lung
NCI-H460 lung = tested on: NCI-H460 lung
NCI-H522 lung = tested on: NCI-H522 lung
NCI/ADR-RES ovarian = tested on: NCI/ADR-RES ovarian
OVCAR-3 ovarian = tested on: OVCAR-3 ovarian
OVCAR-4 ovarian = tested on: OVCAR-4 ovarian
OVCAR-5 ovarian = tested on: OVCAR-5 ovarian
OVCAR-8 ovarian = tested on: OVCAR-8 ovarian
PC-3 prostate = tested on: PC-3 prostate
RPMI-8226 leukemia = tested on: RPMI-8226 leukemia
RXF 393 renal = tested on: RXF 393 renal
SF-268 CNS = tested on: SF-268 CNS
SF-295 CNS = tested on: SF-295 CNS
SF-539 CNS = tested on: SF-539 CNS
SK-MEL-2 melanoma = tested on: SK-MEL-2 melanoma
SK-MEL-28 melanoma = tested on: SK-MEL-28 melanoma
SK-MEL-5 melanoma = tested on: SK-MEL-5 melanoma
SK-OV-3 ovarian = tested on: SK-OV-3 ovarian
SN12C renal = tested on: SN12C renal
SNB-19 CNS = tested on: SNB-19 CNS
SNB-75 CNS = tested on: SNB-75 CNS
SR leukemia = tested on: SR leukemia
SW-620 colon = tested on: SW-620 colon
T-47D breast = tested on: T-47D breast
TK-10 renal = tested on: TK-10 renal
U251 CNS = tested on: U251 CNS
UACC-257 melanoma = tested on: UACC-257 melanoma
UACC-62 melanoma = tested on: UACC-62 melanoma
UO-31 renal = tested on: UO-31 renal
DLD-1 colon = tested on: DLD-1 colon
DMS 273 small cell lung = tested on: DMS 273 small cell lung
KM20L2 colon = tested on: KM20L2 colon
LXFL 529 NSCLC = tested on: LXFL 529 NSCLC
M19-MEL melanoma = tested on: M19-MEL melanoma
RXF-631 renal = tested on: RXF-631 renal
SNB-78 CNS = tested on: SNB-78 CNS

Measured: TGI

O=C(CC(c1ccccc1)c1c(O)c2ccccc2oc1=O)c1ccccc1 (stereo unspecified)
98.6 µM: A498 renal
> 81.9 µM: OVCAR-3 ovarian
46.4 µM: CAKI-1 renal
> 86.5 µM: HOP-92 NSCLC
not listed: DLD-1 colon | DMS 273 small cell lung | KM20L2 colon | LXFL 529 NSCLC | M19-MEL melanoma | RXF-631 renal | SNB-78 CNS
> 100 µM: all other assays above

Cc1[nH]c2ccccc2c1C(=O)CC1(O)C(=O)Nc2ccccc21 (stereo unspecified)
not listed: BT-549 breast | DU-145 prostate | HS 578T breast | MALME-3M melanoma | MCF7 breast | MDA-MB-231 breast | MDA-MB-435 | MDA-N | NCI-H522 lung | NCI/ADR-RES ovarian | OVCAR-3 ovarian | OVCAR-8 ovarian | PC-3 prostate | T-47D breast
> 100 µM: all other assays above
